In patent US3953501A, “Triiodoisophthalic acid monoamino acid amides” (Schering Aktiengesellschaft, priority 1972, dated 1976):
Where “and” joins values, the source holds several entries; their conditions need not be identical. Identical values can stand only once.

How the values were obtained:
Format in all cases: in vivo
rats [1] = assay: Cisternal compatibility (injection into suboccipital cisterna); details: 0.008 - 0.200 ml./kg., methylglucamine salts, 200 mg. I/ml., neurological symptoms in 50% of animals, (1) = Iotalamat (H), (2) = compound
Procedure: (§1) All substances were tested as methylglucamine salts with 200 mg. I/ml. of solution. The intracerebral compatibility was determined on rats in accordance with Valzelli, Med. Exp. 11: 23-26 (1964).
In order to determine the cisternal compatibility, the test compounds were injected in varying doses (0.008 - 0.200 ml./kg.) by means of a Hamilton No. 710 syringe directly into the suboccipital cisterna of rats which were under a slight ether narcosis.
(§2) As a measure of physiological compatibility, the ED50 was determined in each case, i.e., the dose at which an undesired array of neurological symptoms (including convulsions and death) is evoked in 50% of the animals.

rats [2] = assay: Intracerebral compatibility according to Valzelli; details: methylglucamine salts, 200 mg. I/ml., dose evoking neurological symptoms (including convulsions and death) in 50% of animals, (1) = Iotalamat (H), (2) = compound
Procedure: as §1, §2

rats [3] = assay: Cerebral compatibility (injection into left common carotid artery); details: 14.0 - 26.0 ml./kg., methylglucamine salts, 200 mg. I/ml., neurological symptoms in 50% of animals, (1) = Iotalamat (H), (2) = compound
Procedure: as §1
Cerebral compatibility was likewise determined on rats. In an operation under a slight ether narcosis, a catheter was affixed in the left common carotid artery; the distal end of the catheter, after having been passed through the lateral connective tissue of the neck, was fixed in the center of the back. Three hours later, the test compounds were cranially injected in varying doses (14.0 - 26.0 ml./kg.) into the artery.
as §2

For CC(=O)Nc1c(I)c(C(=O)O)c(I)c(C(=O)NCC(N)=O)c1I [A, N-(3-Carboxy-5-acetamido-2,4,6-triiodobenzoyl)-glycine Amide], the “ED50 cisternal compatibility (myelography)” value (rats [1]) was 11.17 mg. I/kg and the “ED50 intracerebral compatibility according to Valzelli (myelography)” value (rats [2]) was 70.72 mg. I/kg.
CNC(=O)CNC(=O)c1c(I)c(NC(=O)COC)c(I)c(C(=O)O)c1I [C, N-(3-Carboxy-5-methoxyacetamido-2,4,6-triiodobenzoyl)-glycine Methylamide] was tested, and the “ED50 cisternal compatibility (myelography)” value (rats [1]) was 20.04 mg. I/kg and the “ED50 intracerebral compatibility according to Valzelli (myelography)” value (rats [2]) was 53.97 mg. I/kg.
For CNC(=O)c1c(I)c(NC(C)=O)c(I)c(C(=O)N(C)CC(=O)O)c1I [D, N-(3-Methylaminocarbonyl-5-acetamido-2,4,6-triiodobenzoyl)-sarcosine], the “ED50 cerebral compatibility (angiography)” value (“ED50 cerebral compatibility” below) (rats [3]) was 3.99 g I/kg, the “ED50 cisternal compatibility (myelography)” value (rats [1]) was 11.93 mg. I/kg and the “ED50 intracerebral compatibility according to Valzelli (myelography)” value (rats [2]) was 76.21 mg. I/kg.
With CNC(=O)C(CO)NC(=O)c1c(I)c(NC(=O)COC)c(I)c(C(=O)O)c1I (racemic) [F, N-(3-Carboxy-5-methoxyacetamido-2,4,6-triiodobenzoyl)-DL-serine Methylamide] the “ED50 cerebral compatibility” value (rats [3]) was 3.78 g I/kg, the “ED50 cisternal compatibility (myelography)” value (rats [1]) was 22.8 mg. I/kg and the “ED50 intracerebral compatibility according to Valzelli (myelography)” value (rats [2]) was 81.32 mg. I/kg.
In the case of CNC(=O)C(C)NC(=O)c1c(I)c(NC(C)=O)c(I)c(C(=O)O)c1I (racemic) [B, N-(3-Carboxy-5-acetamido-2,4,6-triiodobenzoyl)-DL-alanine Methylamide], the “ED50 cisternal compatibility (myelography)” value (rats [1]) was 16.7 mg. I/kg and the “ED50 intracerebral compatibility according to Valzelli (myelography)” value (rats [2]) was 66.30 mg. I/kg.
In the case of CNC(=O)c1c(I)c(NC(C)=O)c(I)c(C(=O)O)c1I [H, 3-acetamido-5-methylcarbamoyl-2,4,6-triiodobenzoic acid, reference compound], the “ED50 cisternal compatibility (myelography)” value (rats [1]) was 10.56 mg. I/kg. and 11.8 mg. I/kg. and 9.8 mg. I/kg. and 10.9 mg. I/kg. and 10.07 mg. I/kg. and 10.30 mg. I/kg and the “ED50 intracerebral compatibility according to Valzelli (myelography)” value (rats [2]) was 59.83 mg. I/kg. and 56.59 mg. I/kg. and 60.86 mg. I/kg. and 61.92 mg. I/kg. and 61.28 mg. I/kg.
For CC(=O)Nc1c(I)c(C(N)=O)c(I)c(C(=O)NCC(=O)O)c1I [E, N-(3-Aminocarbonyl-5-acetamido-2,4,6-triiodobenzoyl)-glycine], the “ED50 cisternal compatibility (myelography)” value (rats [1]) was 14.42 mg. I/kg and the “ED50 intracerebral compatibility according to Valzelli (myelography)” value (rats [2]) was 69.84 mg. I/kg.
For CNC(=O)CNC(=O)c1c(I)c(NC(=O)CO)c(I)c(C(=O)O)c1I [G, N-(3-Carboxy-5-hydroxyacetamido-2,4,6-triiodobenzoyl)-glycine Methylamide], the “ED50 cerebral compatibility” value (rats [3]) was 3.55 g I/kg, the “ED50 cisternal compatibility (myelography)” value (rats [1]) was 11.8 mg. I/kg and the “ED50 intracerebral compatibility according to Valzelli (myelography)” value (rats [2]) was 62.62 mg. I/kg.
